# Assay results as given in patent US20190142971A1, “FORMULATION AND DELIVERY OF MODIFIED NUCLEOSIDE, NUCLEOTIDE, AND NUCLEIC ACID COMPOSITIONS” (ModernaTX, Inc., priority 2013, published 2019).
# Assays:
# Balb-C mice [1] = experiment: Example 108: luciferase mRNA IM with electroporation, total flux (Tables 174-176); type: in vivo; conditions: 2.5 mg/kg IM with electroporation
# Procedure: The mice of Group 2 were treated with electroporation (EP) using the […]™ instrument (Harvard Apparatus/BTX®, Holliston, Mass.) immediately after administration of luciferase.
# […] Twenty minutes prior to imaging, the mice were injected intraperitoneally with a D-luciferin solution at 150 mg/kg. Animals were then anesthetized and images were acquired with an IVIS Lumina II imaging system (Perkin Elmer). Bioluminescence was measured as total flux (photons/second) of the entire mouse.
# Balb-C mice [2] = experiment: Example 76: modified luciferase mRNA in PBS IM, SC in mice, total flux (Tables 115, 116); type: in vivo; conditions: 2.5 mg/kg, PBS (pH 7.4)
# Procedure: The mice were imaged at 2 hours, 8 hours, 24 hours, 48 hours, 72 hours, 96 hours, 120 hours and 144 hours for intramuscular delivery and 2 hours, 8 hours, 24 hours, 48 hours, 72 hours, 96 hours and 120 hours for subcutaneous delivery. Twenty minutes prior to imaging, mice were injected intraperitoneally with a D-luciferin solution at 150 mg/kg. Animals were then anesthetized and images were acquired with an IVIS Lumina II imaging system (Perkin Elmer). Bioluminescence was measured as total flux (photons/second) of the entire mouse. The average total flux (photons/second) for intramuscular administration is shown in Table 115 and the average total flux (photons/second) for subcutaneous administration is shown in Table 116. The background signal was 3.79E+05 (p/s). The peak expression for intramuscular administration was seen between 24 and 48 hours for all chemistry and expression was still detected at 144 hours.
# Balb-C mice [3] = experiment: Example 112: luciferase mRNA electroporation dose response, total flux (Tables 179, 180); conditions: mouse, in vivo
# Procedure: The mice undergoing electroporation were subjected to electroporation (EP) using the […]™ instrument (Harvard Apparatus/BTX®, Holliston, Mass.), as outlined in Table 179, immediately after the administration of luciferase or the control.
# All of the mice are imaged at 3 hours, 24 hours, 48 hours, 168 hours, 336 hours and 504 hours post-administration of luciferase modified mRNA. Twenty minutes prior to imaging, the mice are injected intraperitoneally with a D-luciferin solution at 150 mg/kg. Animals are then anesthetized and images were acquired with an IVIS Lumina II imaging system (Perkin Elmer). Bioluminescence is measured as total flux (photons/second) of the entire mouse.
# Balb-C mice [4] = experiment: Example 85: lipoplexed luciferase mRNA IV, IM, SC, flux and organ flux (Tables 131, 132); type: in vivo; conditions: 0.10 mg/kg; for Flux (average total flux, entire mouse): Balb-C mice; for Organ Flux, Inj. Site: imaged at 6 hours; for Organ Flux, Kidney / Organ Flux, Liver / Organ Flux, Lung / Organ Flux, Spleen: organs imaged at 6 hours
# Procedure: The formulation was administered intravenously (I.V.), intramuscularly (I.M.) or subcutaneously (S.C.) to Balb-C mice at a dose of 0.10 mg/kg.
# Twenty minutes prior to imaging, mice were injected intraperitoneally with a D-luciferin solution at 150 mg/kg. Animals were then anesthetized and images were acquired with an IVIS Lumina II imaging system (Perkin Elmer). Bioluminescence was measured as total flux (photons/second) of the entire mouse. The mice were imaged at 8 hours, 24 hours and 48 hours after dosing and the average total flux (photons/second) was measured for each route of administration and chemical modification. The background signal was about 3.91E+05 p/s. Organs were imaged at 6 hours and the average total flux (photons/second) was measured for the liver, spleen, lung and kidney. A control for each organ was also analyzed.
# Balb-C mice [5] = experiment: Example 113: FGF21 mRNA IM with or without electroporation, serum FGF21 (Tables 181, 182); type: in vivo; conditions: 5 mg/kg IM
# Procedure: The mice undergoing electroporation were subjected to electroporation (EP) using the […]′ instrument (Harvard Apparatus/BTX®, Holliston, Mass.), as outlined in Table 181, immediately after the administration of FGF21 mRNA or the control.
# Serum was collected from the mice at 2 hours and 8 hours.
molecule,measurement,setting,value
"Luciferase modified mRNA: luciferase mRNA, SEQ ID NO: 14, fully modified with 5-methylcytosine and 1-methylpseudouridine, in PBS (pH 7.4)",expression greater than an order of magnitude above background out to,Balb-C mice [1],480 h
same,Flux,"Balb-C mice [2]; Intramuscular, 2 hours",4.65E+06 p/s
same,Flux,"Balb-C mice [2]; Intramuscular, 8 hours",3.64E+06 p/s
same,Flux,"Balb-C mice [2]; Intramuscular, 24 hours",1.22E+07 p/s
same,Flux,"Balb-C mice [2]; Intramuscular, 48 hours",1.01E+07 p/s
same,Flux,"Balb-C mice [2]; Intramuscular, 72 hours",8.59E+06 p/s
same,Flux,"Balb-C mice [2]; Intramuscular, 96 hours",2.70E+06 p/s
same,Flux,"Balb-C mice [2]; Intramuscular, 120 hours",1.60E+06 p/s
same,Flux,"Balb-C mice [2]; Intramuscular, 144 hours",2.19E+06 p/s
same,Flux,"Balb-C mice [2]; Subcutaneous, 2 hours",4.54E+06 p/s
same,Flux,"Balb-C mice [2]; Subcutaneous, 8 hours",8.75E+05 p/s
same,Flux,"Balb-C mice [2]; Subcutaneous, 24 hours",5.49E+06 p/s
same,Flux,"Balb-C mice [2]; Subcutaneous, 48 hours",1.77E+06 p/s
same,Flux,"Balb-C mice [2]; Subcutaneous, 72 hours",8.00E+05 p/s
same,Flux,"Balb-C mice [2]; Subcutaneous, 96 hours",5.33E+05 p/s
same,Flux,"Balb-C mice [2]; Subcutaneous, 120 hours",4.09E+05 p/s
same,protein expression with vs without electroporation,Balb-C mice [3],increase protein expression
same,"Flux (average total flux, entire mouse)","Balb-C mice [4]; I.M., 8 hrs",2.53E+06 p/s
same,"Flux (average total flux, entire mouse)","Balb-C mice [4]; I.M., 24 hrs",7.84E+05 p/s
same,"Flux (average total flux, entire mouse)","Balb-C mice [4]; I.M., 48 hrs",6.59E+05 p/s
same,"Organ Flux, Inj. Site",Balb-C mice [4]; I.M.,1.20E+06 p/s
same,"Organ Flux, Kidney",Balb-C mice [4]; I.M.,1.56E+04 p/s
same,"Organ Flux, Liver",Balb-C mice [4]; I.M.,1.72E+04 p/s
same,"Organ Flux, Lung",Balb-C mice [4]; I.M.,1.99E+04 p/s
same,"Organ Flux, Spleen",Balb-C mice [4]; I.M.,1.76E+04 p/s
same,"Flux (average total flux, entire mouse)","Balb-C mice [4]; I.V., 8 hrs",1.78E+06 p/s
same,"Flux (average total flux, entire mouse)","Balb-C mice [4]; I.V., 24 hrs",7.13E+05 p/s
same,"Flux (average total flux, entire mouse)","Balb-C mice [4]; I.V., 48 hrs",3.76E+05 p/s
same,"Organ Flux, Kidney",Balb-C mice [4]; I.V.,1.77E+04 p/s
same,"Organ Flux, Liver",Balb-C mice [4]; I.V.,1.48E+05 p/s
same,"Organ Flux, Lung",Balb-C mice [4]; I.V.,1.93E+06 p/s
same,"Organ Flux, Spleen",Balb-C mice [4]; I.V.,5.00E+06 p/s
same,"Flux (average total flux, entire mouse)","Balb-C mice [4]; S.C., 8 hrs",6.48E+06 p/s
same,"Flux (average total flux, entire mouse)","Balb-C mice [4]; S.C., 24 hrs",7.15E+06 p/s
same,"Flux (average total flux, entire mouse)","Balb-C mice [4]; S.C., 48 hrs",3.20E+06 p/s
same,"Organ Flux, Inj. Site",Balb-C mice [4]; S.C.,8.29E+04 p/s
same,"Organ Flux, Kidney",Balb-C mice [4]; S.C.,1.14E+04 p/s
same,"Organ Flux, Liver",Balb-C mice [4]; S.C.,1.20E+04 p/s
same,"Organ Flux, Lung",Balb-C mice [4]; S.C.,1.38E+04 p/s
same,"Organ Flux, Spleen",Balb-C mice [4]; S.C.,1.46E+04 p/s
"FGF21 modified mRNA: Fibroblast Growth Factor 21 mRNA, SEQ ID NO: 24, 5-methylcytosine and 1-methylpseudouridine, in PBS (nucleic acid, 5-methylcytosine, 1-methylpseudouridine) GGGAAAUAAGAGAGAAAAGAAGAGUAAGAAGAAAUAUAAGAGCCACCAUGGACUCGGACGAGACCGGGUUCGAGCACUCAGGACUGUGGGUUUCUGUGCUGGCUGGUCUUCUGCUGGGAGCCUGCCAGGCACACCCCAUCCCUGACUCCAGUCCUCUCCUGCAAUUCGGGGGCCAAGUCCGGCAGCGGUACCUCUACACAGAUGAUGCCCAGCAGACAGAAGCCCACCUGGAGAUCAGGGAGGAUGGGACGGUGGGGGGCGCUGCUGACCAGAGCCCCGAAAGUCUCCUGCAGCUGAAAGCCUUGAAGCCGGGAGUUAUUCAAAUCUUGGGAGUCAAGACAUCCAGGUUCCUGUGCCAGCGGCCAGAUGGGGCCCUGUAUGGAUCGCUCCACUUUGACCCUGAGGCCUGCAGCUUCCGGGAGCUGCUUCUUGAGGACGGAUACAAUGUUUACCAGUCCGAAGCCCACGGCCUCCCGCUGCACCUGCCAGGGAACAAGUCCCCACACCGGGACCCUGCACCCCGAGGACCAGCUCGCUUCCUGCCACUACCAGGCCUGCCCCCCGCACCCCCGGAGCCACCCGGAAUCCUGGCCCCCCAGCCCCCCGAUGUGGGCUCCUCGGACCCUCUGAGCAUGGUGGGACCUUCCCAGGGCCGAAGCCCCAGCUACGCUUCCUGAUAAUAGGCUGGAGCCUCGGUGGCCAUGCUUCUUGCCCCUUGGGCCUCCCCCCAGCCCCUCCUCCCCUUCCUGCACCCGUACCCCCGUGGUCUUUGAAUAAAGUCUGAGUGGGCGGC",protein production with vs without electroporation,Balb-C mice [5],increase protein production
